Results reported in PubChem BioAssay (NCI).
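All cell lines were grown in 96-well plates and treated with compound for 48 hours. At the GI50, growth is halved. TGI: total growth inhibition.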

Tests used:
Assay in all cases: NCI anticancer screen, dose series, 48 h
786-0 renal = tested on: 786-0 renal
UACC-257 melanoma = tested on: UACC-257 melanoma
OVCAR-5 ovarian = tested on: OVCAR-5 ovarian
CAKI-1 renal = tested on: CAKI-1 renal
NCI-H522 lung = tested on: NCI-H522 lung
TK-10 renal = tested on: TK-10 renal
RXF 393 renal = tested on: RXF 393 renal
DU-145 prostate = tested on: DU-145 prostate
IGROV1 ovarian = tested on: IGROV1 ovarian
SF-539 CNS = tested on: SF-539 CNS
NCI-H460 lung = tested on: NCI-H460 lung
UO-31 renal = tested on: UO-31 renal
NCI/ADR-RES ovarian = tested on: NCI/ADR-RES ovarian
BT-549 breast = tested on: BT-549 breast
HS 578T breast = tested on: HS 578T breast
SNB-19 CNS = tested on: SNB-19 CNS
HL-60(TB) leukemia = tested on: HL-60(TB) leukemia
OVCAR-8 ovarian = tested on: OVCAR-8 ovarian
SNB-75 CNS = tested on: SNB-75 CNS
KM12 colon = tested on: KM12 colon
K-562 leukemia = tested on: K-562 leukemia
MDA-MB-231 breast = tested on: MDA-MB-231 breast
NCI-H23 lung = tested on: NCI-H23 lung
SW-620 colon = tested on: SW-620 colon
SK-MEL-28 melanoma = tested on: SK-MEL-28 melanoma
SK-OV-3 ovarian = tested on: SK-OV-3 ovarian
A549 NSCLC = tested on: A549 NSCLC
UACC-62 melanoma = tested on: UACC-62 melanoma
HOP-92 NSCLC = tested on: HOP-92 NSCLC
EKVX NSCLC = tested on: EKVX NSCLC
COLO 205 colon = tested on: COLO 205 colon
SR leukemia = tested on: SR leukemia
SF-268 CNS = tested on: SF-268 CNS
MDA-MB-435 = tested on: MDA-MB-435
SF-295 CNS = tested on: SF-295 CNS
LOX IMVI melanoma = tested on: LOX IMVI melanoma
OVCAR-3 ovarian = tested on: OVCAR-3 ovarian
MALME-3M melanoma = tested on: MALME-3M melanoma
SK-MEL-2 melanoma = tested on: SK-MEL-2 melanoma
CCRF-CEM leukemia = tested on: CCRF-CEM leukemia
SN12C renal = tested on: SN12C renal
MOLT-4 leukemia = tested on: MOLT-4 leukemia
U251 CNS = tested on: U251 CNS
ACHN renal = tested on: ACHN renal
M14 melanoma = tested on: M14 melanoma
PC-3 prostate = tested on: PC-3 prostate
MCF7 breast = tested on: MCF7 breast
NCI-H226 lung = tested on: NCI-H226 lung
HCT-15 colon = tested on: HCT-15 colon
OVCAR-4 ovarian = tested on: OVCAR-4 ovarian
SK-MEL-5 melanoma = tested on: SK-MEL-5 melanoma
HOP-62 NSCLC = tested on: HOP-62 NSCLC
RPMI-8226 leukemia = tested on: RPMI-8226 leukemia
HCC-2998 colon = tested on: HCC-2998 colon
T-47D breast = tested on: T-47D breast
HT29 colon = tested on: HT29 colon

SMILES: O=c1[nH]c2c3ccncc3cc(-c3cccc(Cl)c3)c2c2cnccc12
- GI50 (786-0 renal): 18.8 µM
- TGI (786-0 renal): 79.5 µM
- GI50 (UACC-257 melanoma): > 100 µM
- TGI (UACC-257 melanoma): > 100 µM
- GI50 (OVCAR-5 ovarian): > 100 µM
- TGI (OVCAR-5 ovarian): > 100 µM
- GI50 (CAKI-1 renal): > 100 µM
- TGI (CAKI-1 renal): > 100 µM
- GI50 (NCI-H522 lung): 30.4 µM
- TGI (NCI-H522 lung): > 100 µM
- GI50 (TK-10 renal): 40.2 µM
- TGI (TK-10 renal): > 100 µM
- GI50 (RXF 393 renal): 0.737 µM
- TGI (RXF 393 renal): 52.3 µM
- GI50 (DU-145 prostate): > 100 µM
- TGI (DU-145 prostate): > 100 µM
- GI50 (IGROV1 ovarian): 72.2 µM
- TGI (IGROV1 ovarian): > 100 µM
- GI50 (SF-539 CNS): 19.6 µM
- TGI (SF-539 CNS): > 100 µM
- GI50 (NCI-H460 lung): > 100 µM
- TGI (NCI-H460 lung): > 100 µM
- GI50 (UO-31 renal): > 100 µM
- TGI (UO-31 renal): > 100 µM
- GI50 (NCI/ADR-RES ovarian): 39.9 µM
- TGI (NCI/ADR-RES ovarian): > 100 µM
- GI50 (BT-549 breast): 7.94 µM
- TGI (BT-549 breast): > 100 µM
- GI50 (HS 578T breast): 28.8 µM
- TGI (HS 578T breast): > 100 µM
- GI50 (SNB-19 CNS): 25.6 µM
- TGI (SNB-19 CNS): > 100 µM
- GI50 (HL-60(TB) leukemia): > 100 µM
- TGI (HL-60(TB) leukemia): > 100 µM
- GI50 (OVCAR-8 ovarian): 11.7 µM
- TGI (OVCAR-8 ovarian): > 100 µM
- GI50 (SNB-75 CNS): 17.7 µM
- TGI (SNB-75 CNS): 89.7 µM
- GI50 (KM12 colon): > 100 µM
- TGI (KM12 colon): > 100 µM
- GI50 (K-562 leukemia): > 100 µM
- TGI (K-562 leukemia): > 100 µM
- GI50 (MDA-MB-231 breast): 4.71 µM
- TGI (MDA-MB-231 breast): > 100 µM
- GI50 (NCI-H23 lung): 12.9 µM
- TGI (NCI-H23 lung): > 100 µM
- GI50 (SW-620 colon): > 100 µM
- TGI (SW-620 colon): > 100 µM
- GI50 (SK-MEL-28 melanoma): > 100 µM
- TGI (SK-MEL-28 melanoma): > 100 µM
- GI50 (SK-OV-3 ovarian): 24.7 µM
- TGI (SK-OV-3 ovarian): > 100 µM
- GI50 (A549 NSCLC): > 100 µM
- TGI (A549 NSCLC): > 100 µM
- GI50 (UACC-62 melanoma): 44.3 µM
- TGI (UACC-62 melanoma): > 100 µM
- GI50 (HOP-92 NSCLC): 69.5 µM
- TGI (HOP-92 NSCLC): > 100 µM
- GI50 (EKVX NSCLC): > 100 µM
- TGI (EKVX NSCLC): > 100 µM
- GI50 (COLO 205 colon): > 100 µM
- TGI (COLO 205 colon): > 100 µM
- GI50 (SR leukemia): 0.442 µM
- TGI (SR leukemia): > 100 µM
- GI50 (SF-268 CNS): 20.8 µM
- TGI (SF-268 CNS): > 100 µM
- GI50 (MDA-MB-435): > 100 µM
- TGI (MDA-MB-435): > 100 µM
- GI50 (SF-295 CNS): 34 µM
- TGI (SF-295 CNS): > 100 µM
- GI50 (LOX IMVI melanoma): 2.04 µM
- TGI (LOX IMVI melanoma): > 100 µM
- GI50 (OVCAR-3 ovarian): 3.7 µM
- TGI (OVCAR-3 ovarian): > 100 µM
- GI50 (MALME-3M melanoma): > 100 µM
- TGI (MALME-3M melanoma): > 100 µM
- GI50 (SK-MEL-2 melanoma): 47.9 µM
- TGI (SK-MEL-2 melanoma): > 100 µM
- GI50 (CCRF-CEM leukemia): > 100 µM
- TGI (CCRF-CEM leukemia): > 100 µM
- GI50 (SN12C renal): 84.2 µM
- TGI (SN12C renal): > 100 µM
- GI50 (MOLT-4 leukemia): > 100 µM
- TGI (MOLT-4 leukemia): > 100 µM
- GI50 (U251 CNS): 4.52 µM
- TGI (U251 CNS): > 100 µM
- GI50 (ACHN renal): 1.91 µM
- TGI (ACHN renal): > 100 µM
- GI50 (M14 melanoma): > 100 µM
- TGI (M14 melanoma): > 100 µM
- GI50 (PC-3 prostate): > 100 µM
- TGI (PC-3 prostate): > 100 µM
- GI50 (MCF7 breast): > 100 µM
- TGI (MCF7 breast): > 100 µM
- GI50 (NCI-H226 lung): 73.8 µM
- TGI (NCI-H226 lung): > 100 µM
- GI50 (HCT-15 colon): > 100 µM
- TGI (HCT-15 colon): > 100 µM
- GI50 (OVCAR-4 ovarian): > 100 µM
- TGI (OVCAR-4 ovarian): > 100 µM
- GI50 (SK-MEL-5 melanoma): > 100 µM
- TGI (SK-MEL-5 melanoma): > 100 µM
- GI50 (HOP-62 NSCLC): 27.9 µM
- TGI (HOP-62 NSCLC): 91.5 µM
- GI50 (RPMI-8226 leukemia): > 100 µM
- TGI (RPMI-8226 leukemia): > 100 µM
- GI50 (HCC-2998 colon): > 100 µM
- TGI (HCC-2998 colon): > 100 µM
- GI50 (T-47D breast): > 100 µM
- TGI (T-47D breast): > 100 µM
- GI50 (HT29 colon): > 100 µM
- TGI (HT29 colon): > 100 µM
